The values that follow come from ChEMBL document CHEMBL1201862, “PubChem BioAssay data set” (2004).

What all share (test): inhibition of tumour cell growth, NCI panel, 48 h
In test [1] the test system is U-251.
In test [2] the test system is SW-620.
Test [3] concerns SK-OV-3.
Test [4] deals with HOP-62.
Test [5] relates to SK-MEL-2.
In test [6] the test system is SNB-75.
Test [7] relates to SK-MEL-28.
Test [8] concerns CAKI-1.
Test [9] has as its system SN12C.
Test [10] has as its system HCT-116.
In test [11] the test system is OVCAR-3.
Test [12] relates to Malme-3M.
The subject of test [13] is HT-29.
The test system of test [14] is SF-295.
The test system of test [15] is NCI-H522.
The test system of test [16] is UACC-62.
Test [17] has as its system CCRF-CEM.
For test [18], the system named is SR.
The test system of test [19] is NCI-H460.
The subject of test [20] is K562.

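These data come from cells grown in 96-well plates and exposed to compound for 48 hours at five concentrations. Abbreviation: GI50, concentration required for 50% inhibition of growth.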 Calls of active or inactive are those of the source. Cut-off read from the data, not from the text of the source: active = GI50 up to about 1.1 µM and inactive = higher.

As to `O=C1C[C@@H](c2ccccc2)NCCCCN(O)CCCN1`, the GI50 in test [1], in test [2], in test [3], in test [4], in test [5] and in [6] was > 100 µM (inactive) throughout. The GI50 in test [7], in [8], in test [9], in test [10], in test [11] and in [12] was > 100 µM (inactive) throughout. Moreover, the GI50 was > 100 µM (inactive) in test [13]; > 100 µM (inactive) in test [14]; > 100 µM (inactive) in test [15]; > 100 µM (inactive) in [16]; > 100 µM (inactive) in test [17]; > 10 µM (inactive) in [18].

With `COC(=O)C(Cc1ccccc1)NC(=O)C(CCCNC(=N)N)NC(=O)OCc1ccccc1` (configuration not stated), the GI50 in test [1], in [2], in test [3], in test [4], in test [19] and in [20] was > 100 µM (inactive) each time. Besides, the GI50 in test [6], in [7], in test [8], in test [9], in test [10] and in test [11] was > 100 µM (inactive) throughout. In addition, the GI50 in test [12], in [13], in test [14], in test [15], in test [16] and in test [17] was > 100 µM (inactive) in each case. The GI50 in test [18] was > 100 µM (inactive).

As for `COc1ccc(C2S/C(=C\c3ccccc3)C(=O)N2NC(=O)Cc2ccccc2)cc1` (configuration not stated), the GI50 in test [1], in test [2], in test [3], in [4], in [19] and in test [20] was > 100 µM (inactive) in each case. Besides, the GI50 is > 100 µM (inactive) in test [5]; > 100 µM (inactive) in test [6]; 26.1 µM (inactive) in test [7]; > 100 µM (inactive) in [8]; > 100 µM (inactive) in test [9]; > 100 µM (inactive) in test [10]. Moreover, the GI50 in test [12] is > 100 µM (inactive); in [13] it was > 100 µM (inactive); in test [14], > 100 µM (inactive); in [15], > 100 µM (inactive); in test [16] it was > 100 µM (inactive); in test [17], 49.3 µM (inactive). Moreover, the GI50 in [18] is 68.5 µM (inactive).

In the case of `S=C1CSc2c(ccc3ccccc23)N1`, the GI50 in test [1], in test [3], in test [4], in test [19], in test [20] and in test [6] was > 100 µM (inactive) throughout. In addition, the GI50 in test [7], in test [8], in test [9], in test [10], in [11] and in test [12] was > 100 µM (inactive) in each case. Besides, the GI50 in test [13], in test [14], in test [15], in [16], in [17] and in test [18] was > 100 µM (inactive) throughout.

Consider `COc1ccc([C@H](NC(=O)c2ccccc2)[C@@H](O)C(=O)O[C@H]2C[C@@]3(O)C(OC(=O)c4ccccc4)C4[C@](C)(C(=O)[C@H](OC(C)=O)C(=C2C)C3(C)C)[C@@H](O)C[C@H]2OC[C@@]42OC(C)=O)cc1` (some centres not stated), for which the GI50 in test [1] is 0.00695 µM (active); in test [2] it was 0.00508 µM (active); in test [3], 0.00117 µM (active); in test [4], 0.015 µM (active); in test [19], 0.00931 µM (active); in test [20], 0.00122 µM (active). The GI50 was 0.00705 µM (active) in [5]; < 0.001 µM (active) in [6]; 0.00593 µM (active) in test [7]; 0.249 µM (active) in test [8]; 0.00284 µM (active) in test [9]; < 0.001 µM (active) in [10]. In addition, the GI50 in test [12] is 0.0028 µM (active); in [13] it was < 0.001 µM (active); in test [14], 0.0783 µM (active); in test [15] it was 0.00227 µM (active); in [16], 0.00136 µM (active); in test [17] it was 0.00184 µM (active). In addition, the GI50 in test [18] was 0.00182 µM (active).

For the molecule `c1ccc(CCNCc2ccco2)nc1`, the GI50 in test [1], in [2], in test [3], in test [4], in [19] and in test [5] was > 100 µM (inactive) each time. For the same molecule, the GI50 in [6] was > 77.4 µM (inactive); in test [7], > 100 µM (inactive); in test [8], > 100 µM (inactive); in [9], > 100 µM (inactive); in [10], > 100 µM (inactive); in [11] it was > 100 µM (inactive). Also, the GI50 in [12] was > 100 µM (inactive); in test [13] it was > 100 µM (inactive); in test [14] it was > 100 µM (inactive); in test [15], > 100 µM (inactive); in test [16], > 100 µM (inactive); in test [17], > 48.6 µM (inactive). Moreover, in test [18], the GI50 is 1 µM (active).

Consider `COc1ccc(/C(=N/O)c2ccccc2-c2nc3ccccc3c(=O)n2-c2ccc(S(=O)(=O)Nc3ncccn3)cc2)cc1C`, for which the GI50 was 11.8 µM (inactive) in [1]; 18 µM (inactive) in test [2]; 6.81 µM (inactive) in [3]; 16.1 µM (inactive) in [4]; 15.6 µM (inactive) in test [19]; 12.2 µM (inactive) in test [20]. For the same molecule, the GI50 in test [6] was 14.2 µM (inactive); in test [7], 14.9 µM (inactive); in [8], 21.1 µM (inactive); in test [9], > 30.2 µM (inactive); in test [10], 12.7 µM (inactive); in test [11], 15.8 µM (inactive). The GI50 in [12] was > 10 µM (inactive); in [13], > 10 µM (inactive); in test [14], 12.9 µM (inactive); in test [15] it was 14.2 µM (inactive); in test [16] it was 12.1 µM (inactive); in test [17], 13.6 µM (inactive). Also, in test [18], the GI50 was 15.3 µM (inactive).

Consider `Cc1cccc2c1CC1(Cc3ccccc3C1=O)C2=O` (configuration not stated), for which the GI50 in test [1] was > 100 µM (inactive); in test [2], > 100 µM (inactive); in test [3], 37.6 µM (inactive); in test [4] it was 35.7 µM (inactive); in test [19] it was > 100 µM (inactive); in test [20], > 100 µM (inactive). Further, the GI50 in test [6] is 77.4 µM (inactive); in [7], > 100 µM (inactive); in test [9] it was > 100 µM (inactive); in test [10], > 100 µM (inactive); in [11] it was > 100 µM (inactive); in test [12], > 100 µM (inactive). For the same molecule, the GI50 in [13] is > 100 µM (inactive); in test [14], > 100 µM (inactive); in [15], > 100 µM (inactive); in test [16], 75.7 µM (inactive); in test [17], > 100 µM (inactive); in test [18] it was > 100 µM (inactive).

Take `C/C(O)=C1\CC2CN3CCc4c([nH]c5ccccc45)C3CC2CC1=O` (configuration not stated): the GI50 is > 100 µM (inactive) in [1]; 38.5 µM (inactive) in test [2]; 24.8 µM (inactive) in test [3]; > 100 µM (inactive) in test [4]; > 100 µM (inactive) in test [19]; 28.5 µM (inactive) in [20]. Further, the GI50 in [5] is 43 µM (inactive); in test [6] it was 21.4 µM (inactive); in test [7] it was > 100 µM (inactive); in [9], 71.1 µM (inactive); in test [10] it was 52.1 µM (inactive); in test [11], 27.9 µM (inactive). In addition, the GI50 in test [12] is > 100 µM (inactive); in test [13], 67.1 µM (inactive); in test [14], > 100 µM (inactive); in [15], 65.6 µM (inactive); in test [17], 29.4 µM (inactive); in test [18] it was 23.4 µM (inactive).

Consider `O=C1OC2(OC2c2ccccc2)c2ccccc21` (configuration not stated), for which the GI50 in test [1], in test [2], in [3], in test [4], in [19] and in test [20] was > 100 µM (inactive) throughout. In addition, the GI50 was > 100 µM (inactive) in [5]; > 100 µM (inactive) in test [6]; > 100 µM (inactive) in [7]; > 100 µM (inactive) in [9]; 5.05 µM (inactive) in test [10]; > 100 µM (inactive) in test [11]. Also, the GI50 in test [12], in [13], in test [15], in test [16], in test [17] and in test [18] was > 100 µM (inactive) throughout.

For the molecule `Cc1cc(C)nc(NS(=O)(=O)c2ccc(NC(=O)c3cccc4c(Nc5ccc(S(=O)(=O)N=C(N)N)cc5)c5ccc(Cl)cc5nc34)cc2)n1`, the GI50 in test [1] was 15.8 µM (inactive); in test [3], > 100 µM (inactive); in test [4], 43.7 µM (inactive); in test [19], 42.8 µM (inactive); in [20], 26.2 µM (inactive); in [6] it was > 100 µM (inactive). In addition, the GI50 in test [7] was 37.4 µM (inactive); in [9], 29.8 µM (inactive); in test [10], 17.4 µM (inactive); in [11], 22.2 µM (inactive); in [12] it was 85.1 µM (inactive); in [13], 33.1 µM (inactive). Moreover, the GI50 is 24.1 µM (inactive) in test [14]; 18.2 µM (inactive) in test [15]; 34.4 µM (inactive) in test [16]; 21.4 µM (inactive) in test [17]; 27.1 µM (inactive) in test [18].
